Results as given in BindingDB's records for patent US20240270732 (Chengdu Biobel Biotechnology Co., 2024).

Target: T1, Receptor-interacting serine/threonine-protein kinase 1 (Homo sapiens, UniProt Q13546)
T1 sequence (Q13546 whole entry): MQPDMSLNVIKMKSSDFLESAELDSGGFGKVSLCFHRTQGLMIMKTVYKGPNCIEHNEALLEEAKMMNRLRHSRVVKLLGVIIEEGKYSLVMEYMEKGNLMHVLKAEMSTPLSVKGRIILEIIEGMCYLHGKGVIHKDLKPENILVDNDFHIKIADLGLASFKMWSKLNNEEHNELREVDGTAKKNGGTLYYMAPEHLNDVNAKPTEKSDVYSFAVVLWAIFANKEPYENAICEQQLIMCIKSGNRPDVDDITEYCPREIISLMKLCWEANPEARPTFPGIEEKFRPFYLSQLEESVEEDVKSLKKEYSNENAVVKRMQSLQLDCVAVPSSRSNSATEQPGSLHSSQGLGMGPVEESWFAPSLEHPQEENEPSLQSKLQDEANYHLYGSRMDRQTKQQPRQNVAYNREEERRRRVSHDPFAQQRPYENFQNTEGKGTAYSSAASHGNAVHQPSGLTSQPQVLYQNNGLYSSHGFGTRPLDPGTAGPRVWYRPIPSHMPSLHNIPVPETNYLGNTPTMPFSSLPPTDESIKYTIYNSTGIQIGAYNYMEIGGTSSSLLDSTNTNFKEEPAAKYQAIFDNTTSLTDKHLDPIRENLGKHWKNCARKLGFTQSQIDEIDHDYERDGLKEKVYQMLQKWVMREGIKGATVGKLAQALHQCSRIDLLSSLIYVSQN
Test: Inhibitory Activity Assay
Procedure: The compound of the present invention and the control compound were dissolved in the assay buffer (50 mM Hepes pH 7.5, 50 mM NaCl, 30 mM MgCl2, 1 mM DTT, 0.02% CHAPS, 0.5 mg/mL BSA), and diluted in a ratio of 1:1.5 using a 22-point titration (high concentration 2 μM), and then added to a 384-well plate. […] After completion of the reaction, 5 μL of ADP-Glo reagent containing 0.02% CHAPS was added to each well and incubated at room temperature for 1 h to terminate the kinase reaction and use up all remaining ATP. Then, 5 μL of ADP-Glo detection solution containing 0.02% CHAPS was added to each well and incubated at room temperature for 30 min to measure the emittance intensity.

IC50 | Compound
20.5 nM | C[C@H]1Oc2ccc(C#CCCCCC(=O)O)cc2N(C)C(=O)[C@H]1NC(=O)c1ncn(Cc2ccccc2)n1 [US20240270732, Compound I-108]
7.35 nM | C[C@H]1Oc2ccc(C#Cc3cccc([N+](=O)[O-])c3)cc2N(C)C(=O)[C@H]1NC(=O)c1n[nH]c(Cc2ccccc2)n1 [US20240270732, Compound I-115]
9.81 nM | C#Cc1ccc2c(c1)N(C)C(=O)[C@@H](NC(=O)c1nc(Cc3ccccc3)n[nH]1)[C@@H](C)O2 [US20240270732, Compound I-119]
10.8 nM | C[C@H]1Oc2ccc(C#CCN3CCN(CC#Cc4ccc5c(c4)N(C)C(=O)[C@@H](NC(=O)c4cc(Cc6ccccc6)on4)[C@@H](C)O5)CC3)cc2N(C)C(=O)[C@H]1NC(=O)c1cc(Cc2ccccc2)on1 [US20240270732, Compound I-46]
6.69 nM | C[C@H]1Oc2ccc(C#Cc3cccnc3)cc2N(C)C(=O)[C@H]1NC(=O)c1n[nH]c(Cc2ccccc2)n1 [US20240270732, Compound I-111]
4.92 nM | CN1C(=O)[C@@H](NC(=O)c2ncn(Cc3ccccc3)n2)COc2ccc(CCCN3CCN(CCCc4ccc5c(c4)N(C)C(=O)[C@@H](NC(=O)c4ncn(Cc6ccccc6)n4)CO5)CC3)cc21 [US20240270732, Compound I-121]
18.2 nM | C[C@H]1Oc2ccc(C#CCN3CCN(CC#Cc4ccc5c(c4)N(C)C(=O)[C@@H](NC(=O)c4n[nH]c(Cc6cccc(O)c6)n4)[C@@H](C)O5)CC3)cc2N(C)C(=O)[C@H]1NC(=O)c1n[nH]c(Cc2cccc(O)c2)n1 [US20240270732, Compound I-70]
5.03 nM | O=C(N[C@H]1COc2ccc(C#CCN3CCN(CC#Cc4ccc5c(c4)NC(=O)[C@@H](NC(=O)c4ncn(Cc6ccccc6)n4)CO5)CC3)cc2NC1=O)c1ncn(Cc2ccccc2)n1 [US20240270732, Compound I-42]
3.18 nM | C[C@H]1Oc2ccc(CCCN3CCN(CCCc4ccc5c(c4)N(C)C(=O)[C@@H](NC(=O)c4ncn(Cc6ccccc6)n4)[C@@H](C)O5)CC3)cc2N(C)C(=O)[C@H]1NC(=O)c1ncn(Cc2ccccc2)n1 [US20240270732, Compound I-122]
6.53 nM | C[C@H]1Oc2ccc(C#CCCO)cc2N(C)C(=O)[C@H]1NC(=O)c1ncn(Cc2ccccc2)n1 [US20240270732, Compound I-106]
4.26 nM | C[C@H]1Oc2ccc(C#Cc3ccncc3)cc2N(C)C(=O)[C@H]1NC(=O)c1n[nH]c(Cc2ccccc2)n1 [US20240270732, Compound I-109]
9.69 nM | O=C(N[C@H]1COc2ccc(C#CCN3CCN(CC#Cc4ccc5c(c4)NC(=O)[C@@H](NC(=O)c4n[nH]c(Cc6ccccc6)n4)CO5)CC3)cc2NC1=O)c1n[nH]c(Cc2ccccc2)n1 [US20240270732, Compound I-21]
11.7 nM | C[C@H]1Oc2ccc(C#Cc3cccc(S(=O)(=O)O)c3)cc2N(C)C(=O)[C@H]1NC(=O)c1ncn(Cc2ccccc2)n1 [US20240270732, Compound I-114]
6.32 nM | C[C@H]1Oc2ccc(C#CCOCCOCCOCCOCCOCC#CC#CCOCCOCCOCCOCCOCC#Cc3ccc4c(c3)N(C)C(=O)[C@@H](NC(=O)c3n[nH]c(Cc5ccccc5)n3)[C@@H](C)O4)cc2N(C)C(=O)[C@H]1NC(=O)c1n[nH]c(Cc2ccccc2)n1 [US20240270732, Compound I-87]
6.16 nM | CN1C(=O)[C@@H](NC(=O)c2nnn(Cc3ccccc3)n2)COc2ccc(C#CCN3CCN(CC#Cc4ccc5c(c4)N(C)C(=O)[C@@H](NC(=O)c4nnn(Cc6ccccc6)n4)CO5)CC3)cc21 [US20240270732, Compound I-58]
3.54 nM | C[C@H]1Oc2ccc(C#CCN3CCN(CC#Cc4ccc5c(c4)N(C)C(=O)[C@@H](NC(=O)c4ncn(Cc6ccccc6)n4)CO5)CC3)cc2N(C)C(=O)[C@H]1NC(=O)c1cn(Cc2ccccc2)cn1 [US20240270732, Compound I-33]
2.95 nM | C[C@H]1Oc2ccc(C#CCN3CCN(CC#Cc4ccc5c(c4)N(C)C(=O)[C@@H](NC(=O)c4ncn(Cc6ccccc6)n4)CO5)CC3)cc2N(C)C(=O)[C@H]1NC(=O)c1ncn(Cc2ccccc2)n1 [US20240270732, Compound I-31]
18.3 nM | C[C@H]1Oc2ccc(C#CCCCN(C)CCCC#Cc3ccc4c(c3)N(C)C(=O)[C@@H](NC(=O)c3ncn(Cc5ccccc5)n3)[C@@H](C)O4)cc2N(C)C(=O)[C@H]1NC(=O)c1ncn(Cc2ccccc2)n1 [US20240270732, Compound I-97]
6.16 nM | CN1C(=O)[C@@H](NC(=O)c2ncn(Cc3ccccc3)n2)COc2ccc(C#CCN3CCN(CC#CC#CCN4CCN(CC#Cc5ccc6c(c5)N(C)C(=O)[C@@H](NC(=O)c5ncn(Cc7ccccc7)n5)CO6)CC4)CC3)cc21 [US20240270732, Compound I-94]
23.1 nM | C[C@H]1Oc2ccc(C#CCN3CCN(CC#Cc4ccc5c(c4)N(C)C(=O)[C@@H](NC(=O)c4ncn(Cc6cccc(N)c6)n4)[C@@H](C)O5)CC3)cc2N(C)C(=O)[C@H]1NC(=O)c1ncn(Cc2cccc(N)c2)n1 [US20240270732, Compound I-78]
10.2 nM | CC(O)C#Cc1ccc2c(c1)N(C)C(=O)[C@@H](NC(=O)c1n[nH]c(Cc3ccccc3)n1)[C@@H](C)O2 (stereo partly specified) [US20240270732, Compound I-103]
7.49 nM | CN1C(=O)[C@@H](NC(=O)c2ncn(Cc3ccccc3)n2)COc2ccc(C#CCOCCOCCOCCOCCOCC#Cc3ccc4c(c3)N(C)C(=O)[C@@H](NC(=O)c3ncn(Cc5ccccc5)n3)CO4)cc21 [US20240270732, Compound I-85-1]
9.91 nM | C[C@H]1Oc2ccc(C#CCN3CCN(CC#Cc4ccc5c(c4)N(C)C(=O)[C@@H](NC(=O)c4cn(Cc6ccccc6)cn4)[C@@H](C)O5)CC3)cc2N(C)C(=O)[C@H]1NC(=O)c1cn(Cc2ccccc2)cn1 [US20240270732, Compound I-60]
3.08 nM | CN1C(=O)[C@@H](NC(=O)c2ncn(Cc3ccccc3)n2)COc2ccc(C#CCN3CCN(CC#Cc4ccc5c(c4)N(C)C(=O)[C@@H](NC(=O)c4ncn(Cc6ccccc6)n4)CO5)CC3)cc21 [US20240270732, Compound I-32]

Compound | IC50
C#CCN1CCN(CC#Cc2ccc3c(c2)N(C)C(=O)[C@@H](NC(=O)c2n[nH]c(Cc4cccnc4)n2)[C@@H](C)O3)CC1 [US20240270732, Compound I-67] | 14.6 nM
C[C@H]1Oc2ccc(C#CCN3CCN(CC#Cc4ccc5c(c4)N(C)C(=O)[C@@H](NC(=O)c4nnn(Cc6ccccc6)n4)CO5)CC3)cc2N(C)C(=O)[C@H]1NC(=O)c1ncn(Cc2ccccc2)n1 [US20240270732, Compound I-26] | 3.73 nM
C[C@H]1Oc2ccc(C#CCN3CCN(CC#Cc4ccc5c(c4)NC(=O)[C@@H](NC(=O)c4n[nH]c(Cc6ccccc6)n4)[C@@H](C)O5)CC3)cc2NC(=O)[C@H]1NC(=O)c1n[nH]c(Cc2ccccc2)n1 [US20240270732, Compound I-17] | 3.56 nM
C[C@H]1Oc2ccc(C#CCN3CCN(CC#Cc4ccc5c(c4)N(C)C(=O)[C@@H](NC(=O)c4cn(Cc6ccccc6)cn4)CO5)CC3)cc2N(C)C(=O)[C@H]1NC(=O)c1n[nH]c(Cc2ccccc2)n1 [US20240270732, Compound I-9] | 8.72 nM
C#CCN1CCN(CC#Cc2ccc3c(c2)N(C)C(=O)[C@@H](NC(=O)c2ncn(Cc4cccc(N)c4)n2)[C@@H](C)O3)CC1 [US20240270732, Compound I-77] | 29 nM
C#CCN1CCN(CC#Cc2ccc3c(c2)NC(=O)[C@@H](NC(=O)c2n[nH]c(Cc4ccccc4)n2)CO3)CC1 [US20240270732, Compound I-20] | 9.44 nM
C[C@H]1Oc2ccc(C#CCN3CCN(CC#Cc4ccc5c(c4)N(C)C(=O)[C@@H](NC(=O)c4n[nH]c(Cc6ccccc6)n4)[C@@H](C)O5)CC3)cc2N(C)C(=O)[C@H]1NC(=O)c1cn(Cc2ccccc2)cn1 [US20240270732, Compound I-8] | 9.5 nM
C#CCN1CCN(CC#Cc2ccc3c(c2)N(C)C(=O)[C@@H](NC(=O)c2n[nH]c(Cc4cccc(O)c4)n2)[C@@H](C)O3)CC1 [US20240270732, Compound I-69] | 19.4 nM
C[C@H]1Oc2ccc(C#CCN3CCN(CC#Cc4ccc5c(c4)N(C)C(=O)[C@@H](NC(=O)c4nnn(Cc6ccccc6)n4)[C@@H](C)O5)CC3)cc2N(C)C(=O)[C@H]1NC(=O)c1n[nH]c(Cc2ccccc2)n1 [US20240270732, Compound I-6] | 11.2 nM
C[C@H]1Oc2ccc(C#CCCCCC#Cc3ccc4c(c3)N(C)C(=O)[C@@H](NC(=O)c3n[nH]c(Cc5ccccc5)n3)[C@@H](C)O4)cc2N(C)C(=O)[C@H]1NC(=O)c1n[nH]c(Cc2ccccc2)n1 [US20240270732, Compound I-79] | 10.5 nM
C#CCN1CCN(CC#Cc2ccc3c(c2)NC(=O)[C@@H](NC(=O)c2n[nH]c(Cc4ccccc4)n2)[C@@H](C)O3)CC1 [US20240270732, Compound I-16] | 5.59 nM
C[C@H]1Oc2ccc(C#CCN3CCN(CC#Cc4ccc5c(c4)N(C)C(=O)[C@@H](NC(=O)c4n[nH]c(Cc6ccccc6)n4)CO5)CC3)cc2N(C)C(=O)[C@H]1NC(=O)c1n[nH]c(Cc2ccccc2)n1 [US20240270732, Compound I-3] | 7.22 nM
